This note sets out measurements from the supplement of paper PMC10307832.

One assay concerns NCI-H23. The assay is described as follows: relative viability (nuclei count vs DMSO), 5 days (fraction); higher = more cells survive. The conditions noted are these: first compound 0.2 µM. In a few lines: (§1)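 Lung cancer cell lines in 1536-well plates were dosed by pin tool the day after seeding, either with one drug alone or with a fixed anchor-drug dose plus five library-drug doses (not always all listed) in √10 steps. After 5 days, cells were fixed and their nuclei stained in one step (final 0.05% Triton X-100, 1% formaldehyde, 1 ug/ml Hoechst), then counted on 4× images. Relative viability is the nuclei count in treated wells divided by that in vehicle wells. Values are medians of duplicate plates.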
With `COCC1(CO)C(=O)C2CCN1CC2` (configuration not stated) [PRIMA-1MET] + Cc1cc(Nc2cc(N3CCN(C)CC3)nc(Sc3ccc(NC(=O)C4CC4)cc3)n2)n[nH]1 [Tozasertib] (partner 0.1 µM), the relative viability was found to be 0.507.
The same measure, in the same setting: the figure for `COCC1(CO)C(=O)C2CCN1CC2` (configuration not stated) [PRIMA-1MET] + Cc1nc(NC(=O)N2CCC[C@H]2C(N)=O)sc1-c1ccnc(C(C)(C)C(F)(F)F)c1 [Alpelisib] (partner 2 µM) is 0.793; for `COCC1(CO)C(=O)C2CCN1CC2` (configuration not stated) [PRIMA-1MET] + C[C@@H](Oc1cc(-c2cnn(C3CCNCC3)c2)cnc1N)c1c(Cl)ccc(F)c1Cl [Crizotinib] (partner 1 µM) it is 0.599.

Staying with this assay, now noted: first compound 0.6325 µM.
`COCC1(CO)C(=O)C2CCN1CC2` (configuration not stated) [PRIMA-1MET] + O=C(CCCCCCC(=O)Nc1ccccc1)NO [Vorinostat] (partner 1 µM) returned a relative viability of 0.48.
As to `COCC1(CO)C(=O)C2CCN1CC2` (configuration not stated) [PRIMA-1MET] + C[C@]1(O)C[C@@H](c2nc(-c3ccc4ccc(-c5ccccc5)nc4c3)c3c(N)nccn32)C1 [Linsitinib] (partner 1 µM), the relative viability turned out to be 0.443.
Same read-out and setting: then `COCC1(CO)C(=O)C2CCN1CC2` (configuration not stated) [PRIMA-1MET] + Cc1cc(Nc2cc(N3CCN(C)CC3)nc(Sc3ccc(NC(=O)C4CC4)cc3)n2)n[nH]1 [Tozasertib] (partner 0.1 µM), with 0.312; and `COCC1(CO)C(=O)C2CCN1CC2` (configuration not stated) [PRIMA-1MET] + Cc1nc(NC(=O)N2CCC[C@H]2C(N)=O)sc1-c1ccnc(C(C)(C)C(F)(F)F)c1 [Alpelisib] (partner 2 µM), with 0.583.
The same measure, in the same setting: the figure for `COCC1(CO)C(=O)C2CCN1CC2` (configuration not stated) [PRIMA-1MET] + C[C@@H](Oc1cc(-c2cnn(C3CCNCC3)c2)cnc1N)c1c(Cl)ccc(F)c1Cl [Crizotinib] (partner 1 µM) is 0.471.

Staying with this assay, now noted: first compound 2 µM.
Consider `COCC1(CO)C(=O)C2CCN1CC2` (configuration not stated) [PRIMA-1MET] + O=C(CCCCCCC(=O)Nc1ccccc1)NO [Vorinostat] (partner 1 µM), for which the relative viability came to 0.482.
Same read-out and setting: then `COCC1(CO)C(=O)C2CCN1CC2` (configuration not stated) [PRIMA-1MET] + C[C@]1(O)C[C@@H](c2nc(-c3ccc4ccc(-c5ccccc5)nc4c3)c3c(N)nccn32)C1 [Linsitinib] (partner 1 µM), with 0.419.
Still for that read-out and setting: the figure for `COCC1(CO)C(=O)C2CCN1CC2` (configuration not stated) [PRIMA-1MET] + Cc1cc(Nc2cc(N3CCN(C)CC3)nc(Sc3ccc(NC(=O)C4CC4)cc3)n2)n[nH]1 [Tozasertib] (partner 0.1 µM) is 0.371; for `COCC1(CO)C(=O)C2CCN1CC2` (configuration not stated) [PRIMA-1MET] + Cc1nc(NC(=O)N2CCC[C@H]2C(N)=O)sc1-c1ccnc(C(C)(C)C(F)(F)F)c1 [Alpelisib] (partner 2 µM) it is 0.555.
Still for that read-out and setting: the figure for `COCC1(CO)C(=O)C2CCN1CC2` (configuration not stated) [PRIMA-1MET] + C[C@@H](Oc1cc(-c2cnn(C3CCNCC3)c2)cnc1N)c1c(Cl)ccc(F)c1Cl [Crizotinib] (partner 1 µM) is 0.48.

Still in this assay, the particulars now being: first compound 6.325 µM.
Compound `COCC1(CO)C(=O)C2CCN1CC2` (configuration not stated) [PRIMA-1MET] + O=C(CCCCCCC(=O)Nc1ccccc1)NO [Vorinostat] (partner 1 µM) had a relative viability of 0.569.
As to `COCC1(CO)C(=O)C2CCN1CC2` (configuration not stated) [PRIMA-1MET] + C[C@]1(O)C[C@@H](c2nc(-c3ccc4ccc(-c5ccccc5)nc4c3)c3c(N)nccn32)C1 [Linsitinib] (partner 1 µM), the relative viability came out at 0.416.
In the case of `COCC1(CO)C(=O)C2CCN1CC2` (configuration not stated) [PRIMA-1MET] + Cc1cc(Nc2cc(N3CCN(C)CC3)nc(Sc3ccc(NC(=O)C4CC4)cc3)n2)n[nH]1 [Tozasertib] (partner 0.1 µM), the relative viability stood at 0.292.
The same measure, in the same setting: the figure for `COCC1(CO)C(=O)C2CCN1CC2` (configuration not stated) [PRIMA-1MET] + Cc1nc(NC(=O)N2CCC[C@H]2C(N)=O)sc1-c1ccnc(C(C)(C)C(F)(F)F)c1 [Alpelisib] (partner 2 µM) is 0.669; for `COCC1(CO)C(=O)C2CCN1CC2` (configuration not stated) [PRIMA-1MET] + C[C@@H](Oc1cc(-c2cnn(C3CCNCC3)c2)cnc1N)c1c(Cl)ccc(F)c1Cl [Crizotinib] (partner 1 µM) it is 0.406.

The assay is the same for the next values; noted with them: first compound 20 µM.
`COCC1(CO)C(=O)C2CCN1CC2` (configuration not stated) [PRIMA-1MET] + O=C(CCCCCCC(=O)Nc1ccccc1)NO [Vorinostat] (partner 1 µM) returned a relative viability of 0.0886.
Same read-out and setting: the figure for `COCC1(CO)C(=O)C2CCN1CC2` (configuration not stated) [PRIMA-1MET] + C[C@]1(O)C[C@@H](c2nc(-c3ccc4ccc(-c5ccccc5)nc4c3)c3c(N)nccn32)C1 [Linsitinib] (partner 1 µM) is 0.113; for `COCC1(CO)C(=O)C2CCN1CC2` (configuration not stated) [PRIMA-1MET] + Cc1cc(Nc2cc(N3CCN(C)CC3)nc(Sc3ccc(NC(=O)C4CC4)cc3)n2)n[nH]1 [Tozasertib] (partner 0.1 µM) it is 0.097; for `COCC1(CO)C(=O)C2CCN1CC2` (configuration not stated) [PRIMA-1MET] + Cc1nc(NC(=O)N2CCC[C@H]2C(N)=O)sc1-c1ccnc(C(C)(C)C(F)(F)F)c1 [Alpelisib] (partner 2 µM) it is 0.111.
Still for that read-out and setting: then `COCC1(CO)C(=O)C2CCN1CC2` (configuration not stated) [PRIMA-1MET] + C[C@@H](Oc1cc(-c2cnn(C3CCNCC3)c2)cnc1N)c1c(Cl)ccc(F)c1Cl [Crizotinib] (partner 1 µM), with 0.104.

A further assay has as its system HCC-15. Described as above. The conditions noted are these: first compound 0.2 µM. The procedure, abridged:
as §1
For the compound `COCC1(CO)C(=O)C2CCN1CC2` (configuration not stated) [PRIMA-1MET] + O=C(CCCCCCC(=O)Nc1ccccc1)NO [Vorinostat] (partner 1 µM), the relative viability turned out to be 0.962.
As to `COCC1(CO)C(=O)C2CCN1CC2` (configuration not stated) [PRIMA-1MET] + C[C@]1(O)C[C@@H](c2nc(-c3ccc4ccc(-c5ccccc5)nc4c3)c3c(N)nccn32)C1 [Linsitinib] (partner 1 µM), the relative viability came out at 0.893.
Still for that read-out and setting: then `COCC1(CO)C(=O)C2CCN1CC2` (configuration not stated) [PRIMA-1MET] + Cc1cc(Nc2cc(N3CCN(C)CC3)nc(Sc3ccc(NC(=O)C4CC4)cc3)n2)n[nH]1 [Tozasertib] (partner 0.1 µM), with 0.431; and `COCC1(CO)C(=O)C2CCN1CC2` (configuration not stated) [PRIMA-1MET] + Cc1nc(NC(=O)N2CCC[C@H]2C(N)=O)sc1-c1ccnc(C(C)(C)C(F)(F)F)c1 [Alpelisib] (partner 2 µM), with 1.01; and `COCC1(CO)C(=O)C2CCN1CC2` (configuration not stated) [PRIMA-1MET] + C[C@@H](Oc1cc(-c2cnn(C3CCNCC3)c2)cnc1N)c1c(Cl)ccc(F)c1Cl [Crizotinib] (partner 1 µM), with 0.925.

Staying with this assay, now noted: first compound 0.6325 µM.
For `COCC1(CO)C(=O)C2CCN1CC2` (configuration not stated) [PRIMA-1MET] + O=C(CCCCCCC(=O)Nc1ccccc1)NO [Vorinostat] (partner 1 µM), the relative viability came out at 0.798.
On the same count and under the same terms, the figure for `COCC1(CO)C(=O)C2CCN1CC2` (configuration not stated) [PRIMA-1MET] + C[C@]1(O)C[C@@H](c2nc(-c3ccc4ccc(-c5ccccc5)nc4c3)c3c(N)nccn32)C1 [Linsitinib] (partner 1 µM) is 0.544; for `COCC1(CO)C(=O)C2CCN1CC2` (configuration not stated) [PRIMA-1MET] + Cc1cc(Nc2cc(N3CCN(C)CC3)nc(Sc3ccc(NC(=O)C4CC4)cc3)n2)n[nH]1 [Tozasertib] (partner 0.1 µM) it is 0.363; for `COCC1(CO)C(=O)C2CCN1CC2` (configuration not stated) [PRIMA-1MET] + Cc1nc(NC(=O)N2CCC[C@H]2C(N)=O)sc1-c1ccnc(C(C)(C)C(F)(F)F)c1 [Alpelisib] (partner 2 µM) it is 0.708.
